Experimental findings from patent US12655150B2 (Cedilla Therapeutics, Inc., priority 2021, dated 2026) are described below.

Structures can show the parent of a compound that is named as a salt. Bounds are passed on as bounds.

The term GI50 denotes the concentration giving 50% growth inhibition. A higher GI50 goes with less potent growth inhibition.

For this assay, the system named is NCI-H226. In words: 72H TEAD Proliferation Assay (Cell Titer Glo 2.0). The assay is classed as cell-based. To be noted: Homo sapiens, NCI-H226, 72 h, CTG 2.0, cell line not given (NCI-H226 responsive, NCI-H28 non-responsive). The gist of the method: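 NF2-deficient NCI-H226 mesothelioma cells, TEAD-dependent, treated 72 h; NF2-wild-type NCI-H28 serves as the TEAD-independent counter-screen for off-target cytotoxicity. Viable cells quantified by CellTiter-Glo 2.0 luminescence; background and time-zero signal subtracted, GI50 from nonlinear dose-response fit.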

Compound `C=CC(=O)NCc1cn2ccnc2c(-c2ccc(F)cc2)n1` [I-110, N-((8-(4-fluorophenyl)imidazo[1,2-a]pyrazin-6-yl)methyl)acrylamide] displayed a GI50 of 1000 to 5000 nM.

For `C=CC(=O)NCc1cn2cccc2c(-c2ccc(C(C)(C)C)cc2)n1` [I-111, N-((1-(4-(tert-butyl)phenyl)pyrrolo[1,2-a]pyrazin-3-yl)methyl)acrylamide], the concentration for 50% growth inhibition (GI50) is no more than 1000 nM.

For the compound `C=CC(=O)Nc1ccc2c(C(F)(F)F)cc(-c3ccc(C(C)(C)C)cc3)nc2c1` [I-112, N-(2-(4-(tert-Butyl)phenyl)-4-(trifluoromethyl)quinolin-7-yl)acrylamide], the GI50 fell in the range of 1000 to 5000 nM.

For `O=C(O)c1ccc2c(c1)nc(C1CCC1)c1cccn12` [I-113, 4-Cyclobutylpyrrolo[1,2-a]quinoxaline-7-carboxylic acid], the 50% growth inhibitory concentration (GI50) was greater than 10000 nM.

Consider `C=CC(=O)Nc1ccc2c(c1)nc(-c1ccc(C(F)(F)F)cc1F)c1cccn12` [I-114, N-(4-(2-Fluoro-4-(trifluoromethyl)phenyl)pyrrolo[1,2-a]quinoxalin-7-yl) acrylamide], for which the 50% growth inhibitory concentration (GI50) was no more than 1000 nM.

Compound `CC(C)(C)c1ccc(-c2nc3cc(C(=O)O)ccc3n3ccc(F)c23)cc1` [I-115, 4-(4-(tert-Butyl)phenyl)-3-fluoropyrrolo[1,2-a]quinoxaline-7-carboxylic acid] showed a 50% growth inhibitory concentration (GI50) of no more than 1000 nM.

`O=C(O)c1ccc2c(c1)nc(N1CCC3(CC1)CC3)c1cncn12` [I-116, 4-(6-Azaspiro[2.5]octan-6-yl)imidazo[1,5-a]quinoxaline-7-carboxylic acid] gave a 50% growth inhibitory concentration (GI50) greater than 10000 nM.

Consider `CC(C)(C)c1ccc(-c2nc3cc(C(=O)O)ccc3n3nccc23)cc1` [I-117, 4-(4-(tert-Butyl)phenyl)pyrazolo[1,5-a]quinoxaline-7-carboxylic acid], for which the concentration for 50% growth inhibition (GI50) lay within 1000 to 5000 nM.

`CC(C)(C)C#Cc1nc2cc(C(=O)O)ccc2n2cccc12` [I-118, 4-(3,3-Dimethylbut-1-yn-1-yl)pyrrolo[1,2-a]quinoxaline-7-carboxylic acid] showed a GI50 greater than 10000 nM.

`C=CC(=O)Nc1ccc2c(c1)nc(-c1ccc(C(C)(C)C)cc1)c1cccn12` [I-119, N-(4-(4-(tert-butyl)phenyl)pyrrolo[1,2-a]quinoxalin-7-yl)acrylamide] displayed a concentration for 50% growth inhibition (GI50) of no more than 1000 nM.

For the compound `C=CC(=O)Nc1ccc2c(c1)nc(-c1ccc(C(F)(F)F)cc1)c1cccn12` [I-120, N-(4-(4-(trifluoromethyl)phenyl)pyrrolo[1,2-a]quinoxalin-7-yl)acrylamide], the concentration for 50% growth inhibition (GI50) was no more than 1000 nM.

Consider `O=C(O)c1ccc2c(c1)nc(NCCC(F)(F)C(F)(F)F)c1cccn12` [I-121, 4-((3,3,4,4,4-Pentafluorobutyl)amino)pyrrolo[1,2-a]quinoxaline-7-carboxylic acid], for which the 50% growth inhibitory concentration (GI50) fell in the range of 1000 to 5000 nM.

For the compound `CC(C)(C)c1ccc(-c2nc3cc(NS(C)(=O)=O)ccc3n3cccc23)cc1` [I-122, N-(4-(4-(tert-butyl)phenyl)pyrrolo[1,2-a]quinoxalin-7-yl)methanesulfonamide], the GI50 lay within 1000 to 5000 nM.

As to `CC(C)(C)c1ccc(-c2nc3cc(C(=O)NS(C)(=O)=O)ccc3n3cccc23)cc1` [I-123, 4-(4-(tert-Butyl)phenyl)-N-(methylsulfonyl)pyrrolo[1,2-a]quinoxaline-7-carboxamide], the concentration for 50% growth inhibition (GI50) was greater than 10000 nM.

`CC(C)(C)c1ccc(-c2nc3cc(C(=O)NS(=O)(=O)C4CC4)ccc3n3cccc23)cc1` [I-124, 4-(4-(tert-Butyl)phenyl)-N-(cyclopropylsulfonyl)pyrrolo[1,2-a]quinoxaline-7-carboxamide]: the GI50 was greater than 10000 nM.

Take `CN(CCCC(F)(F)F)c1nc2cc(C(=O)O)ccc2n2cccc12` [I-125, 4-(Methyl(4,4,4-trifluorobutyl)amino)pyrrolo[1,2-a]quinoxaline-7-carboxylic acid]: the GI50 is greater than 10000 nM.

As to `CN(CCC(F)(F)F)c1nc2cc(C(=O)O)ccc2n2cccc12` [I-126, 4-(Methyl(3,3,3-trifluoropropyl)amino)pyrrolo[1,2-a]quinoxaline-7-carboxylic acid], the GI50 is greater than 10000 nM.

For `O=C(O)c1ccc2c(c1)nc(N1CC3C(C1)C3C(F)(F)F)c1cccn12` (stereo not shown) [I-128, 4-(6-(Trifluoromethyl)-3-azabicyclo[3.1.0]hexan-3-yl)pyrrolo[1,2-a]quinoxaline-7-carboxylic acid hydrochloride], the GI50 lay within 1000 to 5000 nM.

In turn, `Cc1cnc(-c2nc3cc(C(=O)O)ccc3n3cccc23)nc1` [I-129, 4-(5-Methylpyrimidin-2-yl)pyrrolo[1,2-a]quinoxaline-7-carboxylic acid] returned a 50% growth inhibitory concentration (GI50) of 1000 to 5000 nM.

On to `O=C(O)c1ccc2c(c1)nc(OCc1ccc(C(F)(F)F)cc1)c1cccn12` [I-130, 4-((4-(Trifluoromethyl)benzyl)oxy)pyrrolo[1,2-a]quinoxaline-7-carboxylic acid], for which the GI50 is greater than 10000 nM.

`O=C(O)c1ccc2c(c1)nc(OCc1cccc(C(F)(F)F)c1)c1cccn12` [I-131, 4-((3-(Trifluoromethyl)benzyl)oxy)pyrrolo[1,2-a]quinoxaline-7-carboxylic acid] returned a 50% growth inhibitory concentration (GI50) greater than 10000 nM.

`O=C(O)c1ccc2c(c1)nc(-c1ccc(C(F)(F)F)cn1)c1cccn12` [I-132, 4-(5-(Trifluoromethyl)pyridin-2-yl)pyrrolo[1,2-a]quinoxaline-7-carboxylic acid] registered a concentration for 50% growth inhibition (GI50) of no more than 1000 nM.

With `C=CC(=O)Nc1ccc2c(c1)nc(-c1ccc(C(F)(F)F)cc1F)c1nccn12` [I-133, N-(4-(2-Fluoro-4-(trifluoromethyl)phenyl)imidazo[1,2-a]quinoxalin-7-yl)acrylamide], the GI50 is no more than 1000 nM.

In turn, `CCC(=O)Nc1ccc2c(c1)nc(-c1ccc(C(C)(C)C)cc1)c1nccn12` [I-134, N-(4-(4-(tert-butyl)phenyl)imidazo[1,2-a]quinoxalin-7-yl)propionamide] returned a GI50 of 1000 to 5000 nM.

In turn, `CC(=O)Nc1ccc2c(c1)nc(-c1ccc(C(C)(C)C)cc1)c1nccn12` [I-135, N-(4-(4-(tert-butyl)phenyl)imidazo[1,2-a]quinoxalin-7-yl)acetamide] came in with a 50% growth inhibitory concentration (GI50) of 1000 to 5000 nM.

On to `C=CC(=O)N1CCc2c(cccc2-c2ccc(C(F)(F)F)cc2)C1` [I-136, 1-(5-(4-(Trifluoromethyl)phenyl)-3,4-dihydroisoquinolin-2(1H)-yl)prop-2-en-1-one], for which the GI50 is no more than 1000 nM.

In the case of `COCC(C)CC(=O)N1CCc2c(cccc2-c2ccc(C(F)(F)F)cc2)C1` (stereo not shown) [I-137, 4-Methoxy-3-methyl-1-(5-(4-(trifluoromethyl)phenyl)-3,4-dihydroisoquinolin-2(1H)-yl)butan-1-one], the 50% growth inhibitory concentration (GI50) was 1000 to 5000 nM.

For the compound `O=C(O)c1cnc2c(c1)nc(N1CCC3(CC1)CC3)c1cccn12` [I-138, 6-(6-Azaspiro[2.5]octan-6-yl)pyrido[3,2-e]pyrrolo[1,2-a]pyrazine-3-carboxylic acid], the 50% growth inhibitory concentration (GI50) was 1000 to 5000 nM.

In the case of `CC(C)(C)c1ccc(-c2nc3cc(C(=O)O)cnc3n3cccc23)cc1` [I-139, 6-(4-(tert-Butyl)phenyl)pyrido[3,2-e]pyrrolo[1,2-a]pyrazine-3-carboxylic acid], the GI50 was no more than 1000 nM.

For the compound `C=CC(=O)NCc1cn2ccnc2c(-c2ccc(C(C)(C)C)cc2)n1` [I-140, N-((8-(4-(tert-butyl)phenyl)imidazo[1,2-a]pyrazin-6-yl)methyl)acrylamide], the 50% growth inhibitory concentration (GI50) was no more than 1000 nM.

`C=CS(=O)(=O)NCc1cn2ccnc2c(-c2ccc(C(C)(C)C)cc2)n1` [I-141, N-((8-(4-(tert-Butyl)phenyl)imidazo[1,2-a]pyrazin-6-yl)methyl)ethenesulfonamide]: the GI50 was 1000 to 5000 nM.
